This is an account of results in paper PMC9081605, “A High-Throughput Toxicity Screen of 42 Per- and Polyfluoroalkyl Substances (PFAS) and Functional Assessment of Migration and Gene Expression in Human Placental Trophoblast Cells” (Frontiers in Toxicology, 2022).

Common to all, as to type: cell-based, human
Assay [1] concerns JEG-3 cells. Briefly: Proliferation, change in confluence 0-24 h (IncuCyte Zoom, HTTS). The conditions noted are these: for minimal effective concentration: read-out: Prolif ↓, lowest concentration at which the mean response value exceeded the mean control value ± 2*SD (rough binning); for Prolif ↑, lowest concentration at which the mean response value exceeded the mean control value ± 2*SD (rough binning): increase; for cellular proliferation relative to vehicle control (rough binning): after 24 h, in at least one concentration. The source says: (§1) JEG-3 human choriocarcinoma trophoblastic cells (American Type Culture Collection, VA, United States) were maintained in sterile-filtered Minimum Essential Media (MEM) supplemented with L-glutamine and phenol red (Thermo Fisher Scientific, MA, United States), 10% (v/v) heat-inactivated BenchMark Fetal Bovine Serum (Gemini Bio, CA, United States), 1% (v/v) sodium pyruvate (Thermo Fisher Scientific, MA, United States), and 1% (v/v) penicillin streptomycin (Sigma Aldrich, MO, United States). Cells were maintained in an incubator at 37°C with 5% CO2. JEG-3 cells were cultured in 10 cm tissue culture plates and cell passage numbers were recorded.
(§2) A total of 42 perfluoroalkyl substances (PFAS) were evaluated (Supplementary Table S1 contains source and purity). PFAS stock solutions were maintained in 100% methanol as previous work has shown certain PFAS degrade when stored in dimethyl sulfoxide (DMSO; [Gaballah et al., 2020]). […] The vehicle control group consisted of 97.5% media + 2.5% methanol to match the concentration of methanol in the media at the highest PFAS concentration tested (500 µM). Menadione (50–500 µM) was used as a positive control for cytotoxicity assessment. PFAS were de-identified and assigned random numbers to eliminate bias. Chemical exposure plate maps were designed so that all experimental conditions were tested in at least technical duplicates per plate. The outer edges of each plate received media alone and were excluded from all analyses to avoid edge effects. Each plate map included 14 technical replicates of the vehicle control group and 14 technical replicates of media only. Biological replicates were defined as separate 384 well plates tested on separate days using different cell passages. The experimental workflow is depicted in Supplementary Figure S1.
(§3) JEG-3 cells were counted using a Z2 Coulter Particle Counter (Beckman Coulter, CA, United States) and seeded at a density of 2,500 cells per well in black-walled, clear bottom 384 well plates (Corning, #3764) and allowed to adhere overnight. Approximately 24 h later, 384 well plates were imaged using an IncuCyte Zoom live cell imager (Essen BioScience Inc., MI, United States) to obtain baseline cellular confluence measurements prior to chemical dosing (0 h). Media was removed from wells and replaced with fresh media containing chemical treatments (exposure media) using a Viaflo liquid handling device (Integra Biosciences, NH, United States). Within 30 min of exposure media application, plates were again imaged for cellular confluence using the IncuCyte Zoom. Plates were incubated with exposure media for 24 h and then imaged again using the IncuCyte Zoom (24 h).
Plate well bottom images were evaluated using automated cell masking. The automated cell masking program was developed using IncuCyte Zoom base software. Cell masking parameters were defined using a training set of JEG-3 cell images obtained prior to conducting the experiments and following IncuCyte Zoom software recommendations. Briefly, the training images were obtained from cell culture plates with varying levels of JEG-3 cellular confluence (ranging from ∼15% confluent to ∼95% confluent). Parameters for the automated cell masking were first manually set by an experimenter for 3-6 images of low (∼15–30%), medium (∼30–70%), and high confluence (∼70% or greater). The training images were then evaluated by the automated masking program and manually checked to ensure the parameters were sufficiently strict to ignore background (e.g., blank space on the plate well bottom) but adequately sensitive to detect cell borders. The masking program was then implemented on the experimental plates to obtain a baseline cellular confluence measurement at 0 h and a second confluence measurement at 24 h. […]

For assay [2], the system named is JEG-3 cells. The assay can be described thus: Mitochondrial membrane potential, JC-10 assay (HTTS).
Source text: as §1, §2, §3
The JC-10 assay (Enzo Life Sciences, NY, United States) was used to evaluate mitochondrial membrane potential, the main bioenergetic parameter that regulates respiratory rate, ATP synthesis and reactive oxygen species generation. In cells with polarized mitochondrial membranes, the JC-10 dye localizes to the mitochondrial matrix and forms red fluorescent aggregates (540/590 nm). In cells with depolarized mitochondrial membranes, the JC-10 dye localizes in the cytoplasm and converts to a green fluorescent monomer (490/525 nm). Mitochondrial membrane potential was calculated as the ratio of the green and red fluorescence intensities within a well.
At the end of the 24 h exposure period, exposure media was removed from the plate. The plate wells were then washed with 1x phosphate buffered saline (1x PBS). After washing, the JC-10 reagent was suspended in fresh 1x PBS and 20 µl was added to each well at a final concentration of 20 μM (Enzo Life Sciences, NY, United States). The plate was incubated for 1 h at 37°C, and the fluorescence intensities at excitation/emission wavelengths of 490/525 nm and 540/590 nm were measured using a CLARIOstar (BMG Labtech, Offenburg, Germany) plate reader, respectively.
HTTS data were analyzed using a custom data analysis script in R v 1.2.5019 ([R Core Team, 2019]). […]

For assay [3], the system named is JEG-3 cells. The assay can be described thus: CellTiter-Glo luminescent cell viability assay (HTTS). The settings on record: for Viability ↑, lowest concentration at which the mean response value exceeded the mean control value ± 2*SD (rough binning): increase; for cell viability relative to vehicle control (rough binning): after 24 h, in at least one concentration.
Source text: as §1, §2, §3
In the same plate evaluated for mitochondrial membrane potential, cell viability measures were duplexed using the CellTiter-Glo (CTG) Luminescent Cell Viability Assay (Promega, WI, United States). CTG reagent was added to each well at a volume of 20 µl. The plate was left at room temperature to incubate for 5 min and then 20 µl from each well was transferred to a low-volume, round-bottom, white 384 well plate (Corning, NY, United States). The CTG reagent lyses cellular and mitochondrial membranes and binds to adenosine triphosphate (ATP) released by cells, which produces a luminescence signal. The intensity of the luminescence was considered a proxy measure for the number of live cells in a well. The luminescence intensities were measured using the CLARIOstar plate reader.
HTTS data were analyzed using a custom data analysis script in R v 1.2.5019 ([R Core Team, 2019]). Briefly, raw data points corresponding to the confluence measurements at 0 and 24 h, the fluorescence intensities corresponding to MMP, and the relative luminescence units (RLU) corresponding to cell viability were imported directly from Microsoft Excel into the R programming environment, RStudio. Separate plates run on separate days using different JEG-3 passages were considered as biologic replicates. […]
On the technique in general: In ATP-based viability assays light output follows the ATP content of the culture.

The mark [4] stands for this setting: Homo sapiens, JEG-3, 24 h, read-out: Viability EC50 ± SD, JEG-3 cells, 24 h exposure, four-parameter fit, estimates meeting inclusion criteria.
Setting [5] is: Homo sapiens, JEG-3, 24 h, read-out: Proliferation EC50 ± SD, JEG-3 cells, 24 h exposure, four-parameter fit, estimates meeting inclusion criteria.

In the case of `O=C(O)C(F)(OC(F)(F)C(F)(F)C(F)(F)F)C(F)(F)F` (stereo not shown) [Ammonium perfluoro-2-methyl-3-oxahexanoate], the minimal effective concentration in the assay with JEG-3 cells [1] (Homo sapiens, JEG-3, 24 h) turned out to be 50 µM. Further, the EC50 in the assay on JEG-3 cells [1] (Homo sapiens, JEG-3, read-out: Proliferation EC50 ± SD (raw values), JEG-3 cells, raw model output including fits that did not meet inclusion criteria) was determined as 997 ± 952 µM.
Consider `O=C(O)C(F)(OC(F)(F)C(F)(F)C(F)(F)F)C(F)(F)F` (stereo not shown) [Perfluoro-2-methyl-3-oxahexanoic acid], for which, in the assay on JEG-3 cells [2] (Homo sapiens, JEG-3, 24 h, read-out: MMP ↓, lowest concentration at which the mean response value exceeded the mean control value ± 2*SD (rough binning)), the minimal effective concentration turned out to be 375 µM. Moreover, the “MMP relative to vehicle control (rough binning)” value in the assay on JEG-3 cells [2] (after 24 h, in at least one concentration) is “reduced MMP”. The “Prolif ↑, lowest concentration at which the mean response value exceeded the mean control value ± 2*SD (rough binning)” value with JEG-3 cells [1] (JEG-3 cells, 24 h) is listed as 450 µM. In the assay with JEG-3 cells [1], the “cellular proliferation relative to vehicle control (rough binning)” value was “increased cellular proliferation”. Moreover, the EC50 with JEG-3 cells [1] (read-out: Proliferation EC50 ± SD (raw values), JEG-3 cells, raw model output including fits that did not meet inclusion criteria) is 1110 ± 267 µM.
Turning to `O=C(O)C(F)(F)C(F)(F)C(F)(F)C(F)(F)C(F)(F)C(F)(F)C(F)(F)C(F)(F)C(F)(F)C(F)(F)C(F)(F)F` [Perfluorododecanoic acid], the EC50 in the assay on JEG-3 cells [3] (setting [4]) is 361 ± 30.8 µM; in the assay on JEG-3 cells [1] (setting [5]), 318 ± 24.5 µM. The “Viability ↑, lowest concentration at which the mean response value exceeded the mean control value ± 2*SD (rough binning)” value in the assay on JEG-3 cells [3] (JEG-3 cells, 24 h) came out at 50 µM. The “cell viability relative to vehicle control (rough binning)” value in the assay with JEG-3 cells [3] is listed as “increased cell viability”.
Consider `O=C(O)C(F)(F)C(F)(F)C(F)(F)C(F)(F)C(F)(F)C(F)(F)F` [Perfluoroheptanoic acid], for which the values for the EC50 in the assay on JEG-3 cells [3] (setting [4]) and with JEG-3 cells [1] (setting [5]) were 487 ± 409 µM and 277 ± 81.6 µM, respectively. Further, the minimal effective concentration in the assay on JEG-3 cells [1] (Homo sapiens, JEG-3, 24 h) was 450 µM. The “cellular proliferation relative to vehicle control (rough binning)” value in the assay with JEG-3 cells [1] is listed as “reduced cellular proliferation”.
Take `O=C(O)C(F)(F)C(F)(F)C(F)(F)C(F)(F)F` [Perfluoropentanoic acid]: the “Viability ↑, lowest concentration at which the mean response value exceeded the mean control value ± 2*SD (rough binning)” value with JEG-3 cells [3] (JEG-3 cells, 24 h) worked out at 200 µM. For the same compound, the “cell viability relative to vehicle control (rough binning)” value in the assay on JEG-3 cells [3] is given as “increased cell viability”. Moreover, in the assay with JEG-3 cells [2] (JEG-3 cells, 24 h exposure, four-parameter fit, estimates meeting inclusion criteria, read-out: MMP EC50 ± SD), the EC50 was 175 ± 68.4 µM.
Turning to `O=C(O)C(F)(F)C(F)(F)C(F)(F)C(F)(F)C(F)(F)C(F)(F)C(F)(F)C(F)(F)C(F)(F)C(F)(F)C(F)(F)C(F)(F)F` [Perfluorotridecanoic acid], in the assay on JEG-3 cells [3] (JEG-3 cells, 24 h), the “Viability ↑, lowest concentration at which the mean response value exceeded the mean control value ± 2*SD (rough binning)” value was found to be 150 µM. For the same compound, the “cell viability relative to vehicle control (rough binning)” value with JEG-3 cells [3] is “increased cell viability”. Further, the “Prolif ↓, lowest concentration at which the mean response value exceeded the mean control value ± 2*SD (rough binning)” value in the assay with JEG-3 cells [1] (JEG-3 cells, 24 h, decrease) was 450 µM. The “Prolif ↑, lowest concentration at which the mean response value exceeded the mean control value ± 2*SD (rough binning)” value in the assay with JEG-3 cells [1] (JEG-3 cells, 24 h) amounted to 50 µM. Besides, the EC50 with JEG-3 cells [1] (JEG-3 cells, 24 h exposure, four-parameter fit, estimates meeting inclusion criteria, read-out: Proliferation EC50 ± SD) was 388 ± 125 µM.
With `O=S(=O)([O-])C(F)(F)C(F)(F)C(F)(F)C(F)(F)C(F)(F)F.[Na+]` [Sodium perfluoropentanesulfonate], the “Viability ↓, lowest concentration at which the mean response value exceeded the mean control value ± 2*SD (rough binning)” value in the assay with JEG-3 cells [3] (JEG-3 cells, 24 h, decrease) turned out to be 350 µM. Besides, the EC50 with JEG-3 cells [3] (JEG-3 cells, raw model output including fits that did not meet inclusion criteria, read-out: Viability EC50 ± SD (raw values)) turned out to be 1210 µM. Moreover, in the assay with JEG-3 cells [3], the “cell viability relative to vehicle control (rough binning)” value is listed as “reduced cell viability”. Besides, the “Prolif ↑, lowest concentration at which the mean response value exceeded the mean control value ± 2*SD (rough binning)” value with JEG-3 cells [1] (JEG-3 cells, 24 h) is reported as 200 µM. Besides, the “cellular proliferation relative to vehicle control (rough binning)” value in the assay with JEG-3 cells [1] was “increased cellular proliferation”.
